Values quoted from earlier work in US20260048008A1, “ORGANOGELS FOR SUSTAINED DRUG DELIVERY, METHODS OF PREPARATION AND USE THEREOF” (OCULAR THERAPEUTIX, INC., priority 2022, published 2026).

For CC(C)OC(=O)CCC/C=C\C[C@@H]1[C@@H](/C=C/[C@@H](O)COc2cccc(C(F)(F)F)c2)[C@H](O)C[C@@H]1O [Travoprost], the solubility in water is given as “practically insoluble in water”.
